Measurements reported in paper PMC6934184, “Selective DNA-PKcs inhibition extends the therapeutic index of localized radiotherapy and chemotherapy” (The Journal of Clinical Investigation, 2019).

Biological target: T1, AMPK A1/B1/G1 (Homo sapiens, UniProt Q13131)
T1 construct: purchased Thermo Fisher Scientific (Life Technologies) SelectScreen
Experiment: SelectScreen Z'LYTE
Type: biochemical
How it was run: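 SelectScreen broad panel; activity (Z'LYTE, Adapta) plus binding formats. ATP: Km app for CSF1R Z'LYTE; 10 for CAMK1 Adapta. Readout = % per kinase.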

T1 sequence (Q13131 whole entry): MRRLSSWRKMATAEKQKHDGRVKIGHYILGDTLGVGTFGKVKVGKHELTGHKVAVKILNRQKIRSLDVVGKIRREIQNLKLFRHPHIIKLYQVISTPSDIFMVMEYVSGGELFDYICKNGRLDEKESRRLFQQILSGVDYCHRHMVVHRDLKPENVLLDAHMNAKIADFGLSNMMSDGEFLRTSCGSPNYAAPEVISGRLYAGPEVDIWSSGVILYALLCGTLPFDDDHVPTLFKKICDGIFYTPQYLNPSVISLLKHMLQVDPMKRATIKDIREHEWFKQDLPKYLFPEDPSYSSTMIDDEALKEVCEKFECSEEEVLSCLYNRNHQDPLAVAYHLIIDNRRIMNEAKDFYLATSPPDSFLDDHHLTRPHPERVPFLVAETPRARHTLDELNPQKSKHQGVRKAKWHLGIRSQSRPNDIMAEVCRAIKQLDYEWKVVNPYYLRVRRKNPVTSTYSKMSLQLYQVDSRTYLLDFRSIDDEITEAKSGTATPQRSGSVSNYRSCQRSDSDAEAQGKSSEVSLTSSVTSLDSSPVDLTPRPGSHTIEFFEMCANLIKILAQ
T1 sequence (Q9Y478 whole entry partner): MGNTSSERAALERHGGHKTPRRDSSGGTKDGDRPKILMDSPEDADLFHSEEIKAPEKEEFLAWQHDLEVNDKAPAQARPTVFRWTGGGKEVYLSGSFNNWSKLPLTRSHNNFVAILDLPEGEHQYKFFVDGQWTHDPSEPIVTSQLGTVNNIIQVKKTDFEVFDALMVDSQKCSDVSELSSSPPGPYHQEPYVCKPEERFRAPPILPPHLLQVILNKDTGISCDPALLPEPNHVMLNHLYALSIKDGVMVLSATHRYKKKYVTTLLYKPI
T1 sequence (P54619 whole entry partner): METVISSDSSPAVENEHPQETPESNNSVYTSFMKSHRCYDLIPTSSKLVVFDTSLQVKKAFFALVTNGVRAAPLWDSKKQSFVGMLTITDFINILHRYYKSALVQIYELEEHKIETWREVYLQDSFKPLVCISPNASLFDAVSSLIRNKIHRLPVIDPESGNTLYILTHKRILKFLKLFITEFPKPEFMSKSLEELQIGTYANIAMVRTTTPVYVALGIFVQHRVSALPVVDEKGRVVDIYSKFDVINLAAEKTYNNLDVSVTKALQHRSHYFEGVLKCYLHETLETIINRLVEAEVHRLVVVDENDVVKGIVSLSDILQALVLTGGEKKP

**Q.** `CN(C(=O)CN1CCOCC1)c1ccc2sc3c(-c4cccc5c(=O)cc(N6CC7CCC(C6)O7)oc45)cccc3c2c1` [NU5455] was tested. Which inhibition at 1 µM did it give?
**A.** -1.2%
